Measurements reported in US7838533B2, “Azaindole inhibitors of MTP and ApoB” (Merck Patent GmbH, priority 2004, dated 2010).

Tests used:
[1] = test system: apo B secretion in HepG2 cells; assay: Inhibition of ApoB secretion in HepG2 cells, sandwich ELISA; format: cell-based; conditions: 24 hours incubation, ELISA specific for human apo B
Description: The activity of a compound according to the invention can be evaluated by measuring the inhibition of apo B secretion in HepG2 cells.
The HepG2 cells (ECACC No. 85011430) are used as model in the study of the in vitro hepatic secretion of lipoproteins (Dixon J. and Ginsberg H., J. Lipid. Res., 1993, 34, 167-179).
The HepG2 cells are cultured in Dulbecco's modified Eagle's medium comprising 10% foetal calf serum (DMEM and FBS-Gibco) in 96-well plates under an atmosphere of 5% carbon dioxide for 24 hours (about 70% confluence).
The test compounds are dissolved at a concentration of 2 or 10 mM in dimethyl sulfoxide (DMSO). Serial dilutions (1:3.16) are made in DMSO and are added (1:200—Robot Multimek Beckman) to the growth medium (200 μL) and then finally incubated for 24 hours in the various wells containing the HepG2 cells.
The 24-hour culture supernatant diluted to 1:5 (phosphate-buffered saline: PBS comprising 1% bovine serum albumin) is tested according to a sandwich-ELISA method specific for human apo B.
The results are expressed in terms of IC50, i.e. the concentration that produces a 50% inhibition of apo B secretion in the HepG2 cells.

[2] = biological target: T1, microsomal triglyceride transfer protein (MTP) (Mesocricetus auratus, UniProt P55158); assay: Inhibition of MTP activity: transfer of [3H]-triolein from donor liposomes to biotinylated LDL, SPA; format: biochemical; conditions: MTP from golden hamster liver; incubation 18-24 hours at 37° C.
T1 construct: The supernatant comprising the soluble MTP is dialysed; from tissue; host or cells: golden hamster liver microsomes, deoxycholate-solubilised supernatant
T1 sequence (P55158 19-895): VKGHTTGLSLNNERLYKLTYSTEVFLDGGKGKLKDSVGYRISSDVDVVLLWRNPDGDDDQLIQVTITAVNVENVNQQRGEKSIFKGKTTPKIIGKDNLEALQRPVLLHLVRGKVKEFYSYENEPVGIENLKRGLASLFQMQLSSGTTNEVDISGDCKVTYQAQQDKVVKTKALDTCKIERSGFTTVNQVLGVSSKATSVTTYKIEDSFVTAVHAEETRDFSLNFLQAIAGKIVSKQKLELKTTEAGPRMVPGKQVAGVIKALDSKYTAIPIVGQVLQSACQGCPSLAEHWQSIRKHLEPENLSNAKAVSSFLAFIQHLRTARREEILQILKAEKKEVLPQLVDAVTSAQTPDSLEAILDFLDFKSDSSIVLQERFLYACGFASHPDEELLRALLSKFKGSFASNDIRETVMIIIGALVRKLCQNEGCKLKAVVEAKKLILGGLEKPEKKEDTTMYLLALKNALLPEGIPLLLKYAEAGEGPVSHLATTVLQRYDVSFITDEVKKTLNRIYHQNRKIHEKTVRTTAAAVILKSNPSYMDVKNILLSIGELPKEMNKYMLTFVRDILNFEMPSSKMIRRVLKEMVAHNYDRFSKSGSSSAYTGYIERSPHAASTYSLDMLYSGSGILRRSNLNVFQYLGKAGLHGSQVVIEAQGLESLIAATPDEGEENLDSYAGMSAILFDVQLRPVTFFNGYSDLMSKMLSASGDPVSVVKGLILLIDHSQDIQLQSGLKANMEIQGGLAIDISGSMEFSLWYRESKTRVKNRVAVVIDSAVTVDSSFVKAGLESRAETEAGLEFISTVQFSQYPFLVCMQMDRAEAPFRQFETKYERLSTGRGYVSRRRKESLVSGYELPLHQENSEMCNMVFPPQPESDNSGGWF
Description: The inhibition of the activity of microsomal triglyceride transfer protein (MTP) was tested by using the following operating protocol.
The inhibition of MTP activity with a compound can be quantified by observing the inhibition of the transfer of a labelled triglyceride, from a donor particle to an acceptor particle, in the presence of MTP. The procedure for the preparation of MTP is based on the method by Wetterau and Zilversmit (Biochem. Biophys. Acta (1986) 875, 610). A few grams of golden hamster liver are taken and then rinsed several times in a 250 mM sucrose solution at 0° C. All the following steps proceed at +4° C. A homogenate at a concentration of 50% in 250 mM sucrose is prepared using a Teflon mill and then centrifuged for 10 minutes at 10 000×g at +4° C. The supernatant is then centrifuged at 105 000×g for 75 minutes at +4° C. The supernatant is discarded and the microsomal pellet is taken up in 3 ml (per g of starting liver) of Tris/HCl 150 mM pH 8.0. 1-ml aliquot fractions are stored at −80° C. until the time of use.
After thawing a fraction of microsomes (1 ml), 12 ml of refrigerated Tris/HCl 50 mM, KCl 50 mM, MgCl2 5 mM pH 7.4 buffers and 1.2 ml of deoxycholate (0.54% in water) are added. After incubation for 30 minutes at +4° C. with gentle agitation, the suspension is centrifuged at […] for 75 minutes. […]
The reaction mixture is prepared in untreated ½ well white plates (Corning Costar) by addition, in the following order, of: 5 μl of HEPES 50 mM, NaCl 150 mM, BSA 0.1% (w/v), 0.05% sodium azide (w/v), pH 7.4 buffer; 5 μl of liposomes; 5 μl of LDL-biot; 5 μl of test products in DMSO; 5 μl of MTP. After incubation for 18-24 hours at 37° C., the reaction is stopped adding 100 μl of Amersham SPA (Scintillation Proximity Assay) beads coupled to streptavidin, and the radioactivity is counted using a Top Count (Packard) machine at least one hour later. The inhibition of the transfer of the triglycerides with a compound is reflected by a reduction in the transferred radioactivity. […]

Row | IC50 [1] [nM] | IC50 [2] [nM] | Compound
1 | 3 | 529 | CS(=O)(=O)c1ccc(CNC(=O)C(CCCCn2cc(-c3ccccc3)c3cccnc32)C2CCCCC2)cc1 (stereo not drawn)
2 | 15 | 175 | O=C(NCc1ccccc1)C(CCCCn1cc(-c2ccccc2)c2cccnc21)C1CCCCCC1 (stereo not drawn)
3 | 18 | 381 | O=C(NCc1ccncc1)C(CCCCCn1cc(-c2ccccc2)c2cccnc21)C1CCCC1 (stereo not drawn)
